Here are results for 2 compounds from paper PMC5501787, “Heliosterpenoids A and B, two Novel Jatrophane-Derived Diterpenoids with a 5/6/4/6 Ring System from Euphorbia helioscopia” (Scientific Reports, 2017).

The test concerns the target P-glycoprotein (ABCB1) (Homo sapiens, UniProt P08183). The test is described as follows: inhibition of P-gp-mediated adriamycin efflux in MCF-7/ADR cells. Format: cell-based.

P-glycoprotein (ABCB1), sequence (P08183 whole entry): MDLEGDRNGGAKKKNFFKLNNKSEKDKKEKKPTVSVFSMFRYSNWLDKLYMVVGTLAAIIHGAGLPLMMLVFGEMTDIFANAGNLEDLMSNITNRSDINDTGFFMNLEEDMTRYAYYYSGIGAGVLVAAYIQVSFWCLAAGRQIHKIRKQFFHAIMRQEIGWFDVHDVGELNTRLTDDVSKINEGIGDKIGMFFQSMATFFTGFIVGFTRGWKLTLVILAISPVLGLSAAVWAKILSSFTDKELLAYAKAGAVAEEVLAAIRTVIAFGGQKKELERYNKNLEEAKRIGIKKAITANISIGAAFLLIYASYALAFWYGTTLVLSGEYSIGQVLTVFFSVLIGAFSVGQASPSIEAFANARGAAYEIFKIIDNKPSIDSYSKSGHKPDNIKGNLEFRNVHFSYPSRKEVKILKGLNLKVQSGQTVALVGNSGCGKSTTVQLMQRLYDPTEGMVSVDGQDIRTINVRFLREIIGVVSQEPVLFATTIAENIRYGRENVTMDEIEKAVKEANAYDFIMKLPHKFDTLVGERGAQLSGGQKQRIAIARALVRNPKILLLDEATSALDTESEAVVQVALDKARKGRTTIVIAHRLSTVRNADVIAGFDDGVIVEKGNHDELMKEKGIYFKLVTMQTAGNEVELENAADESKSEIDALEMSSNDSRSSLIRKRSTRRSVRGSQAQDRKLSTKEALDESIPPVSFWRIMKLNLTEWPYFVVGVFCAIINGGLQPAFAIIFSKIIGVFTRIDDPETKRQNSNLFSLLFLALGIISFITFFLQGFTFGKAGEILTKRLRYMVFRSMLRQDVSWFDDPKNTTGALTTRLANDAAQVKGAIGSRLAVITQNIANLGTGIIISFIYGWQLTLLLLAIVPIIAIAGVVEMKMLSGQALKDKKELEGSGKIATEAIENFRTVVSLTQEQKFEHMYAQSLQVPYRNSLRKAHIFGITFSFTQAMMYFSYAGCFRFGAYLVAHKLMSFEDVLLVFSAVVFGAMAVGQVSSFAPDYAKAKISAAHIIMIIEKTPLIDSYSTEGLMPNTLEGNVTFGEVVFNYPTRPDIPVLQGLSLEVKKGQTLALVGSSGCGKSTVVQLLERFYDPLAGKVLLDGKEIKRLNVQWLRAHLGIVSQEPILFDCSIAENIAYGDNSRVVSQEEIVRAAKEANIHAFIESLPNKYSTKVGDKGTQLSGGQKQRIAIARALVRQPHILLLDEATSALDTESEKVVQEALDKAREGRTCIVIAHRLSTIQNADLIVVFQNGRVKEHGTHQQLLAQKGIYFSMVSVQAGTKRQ

`CC(=O)O[C@@H]1[C@@H](C)[C@H]2[C@@H]([C@H]3[C@@H](OC(=O)c4ccccc4)[C@H](C)C[C@@]31OC(C)=O)[C@]1(C)C=CC(=O)C(C)(C)[C@H]21` [compound 1, Heliosterpenoid A] had an IC50 of 1280 nM.

Consider `CC(=O)O[C@H]1[C@@H](C)[C@H]2[C@@H]([C@H]3[C@@H](OC(=O)c4ccccc4)[C@@H](C)C[C@@]31O)[C@]1(C)C(=O)C=CC(C)(C)[C@H]21` [compound 2, Heliosterpenoid B], for which it took 1020 nM to reach half-maximal inhibition (IC50).
